In US5252469A, “Process for producing a transglutaminase derived from streptomyces” (Amano Pharmaceutical Co., Ltd., priority 1990, dated 1993):
Like-named read-outs stand apart in the source and are kept apart here. Peptide text beside a SMILES is read from it. * marks the point of attachment. Cbz = O=C(OCc1ccccc1)*

Key:
Assay type in all cases: biochemical
[1] = tested on: Enzyme No. 466 (transglutaminase of Streptomyces lavendulae No. 466); experiment: Substrate specificity: reaction of synthetic substrates with hydroxylamine; conditions: for Substrate specificity, Enzyme No. 466 (reactivity of substrate with hydroxylamine): Table 6, synthetic substrate 5 mM; for Substrate specificity, Enzyme No. 466 (reactivity of substrate with hydroxylamine) / Substrate specificity (%), Enzyme No. 466: CBZ-Gln-Gly = 100; for Substrate specificity (%), Enzyme No. 466: Table 9; for Reactivity of synthetic substrate with Enzyme No. 466 (in words): substrate 5 mM, text says BTGase (both enzymes)
Description: (§1) Measurement of the activity of BTGase is carried out by performing a reaction using benzyloxycarbonyl-L-glutaminyl glycine and hydroxylamine as substrates in the absence of Ca^2+, forming an iron complex with the resulting hydroxamic acid in the presence of trichloroacetic acid, measuring absorption at 525 nm and determining the amount of hydroxamic acid by a calibration curve to calculate the activity. The BTGase activity is measured by the method described below, unless otherwise indicated.
(§2) To 0.05 ml of an enzyme solution is added 0.5 ml of Reagent A and they are mixed with each other. After reacting at 37° C. for 10 minutes, Reagent B is added thereto to discontinue the reaction and form an Fe complex. Thereafter, absorbance is measured at 525 nm. As a control, absorbance is measured after reacting a previously thermally inactivated enzyme solution in a similar manner and a difference in absorbance between the control and the enzyme solution is measured. Separately, a calibration curve is prepared using L-glutamic acid γ-monohydroxamic acid instead of the enzyme solution, and the amount of hydroxamic acid produced is determined by the difference in absorbance described above. An enzyme activity which produces 1 μmol of hydroxamic acid per 1 minute is defined as 1 unit.
(§3) Using each BTGase, reactions of various synthetic substrates with hydroxylamine were examined. […] In this case, the concentration of various synthetic substrates is 5 mM. In the table, CBZ, Gln, Gly and Asn are abbreviations for benzyloxycarbonyl group, glutaminyl group, glycyl group and asparaginyl group, respectively.

[2] = tested on: Enzyme No. 83 (transglutaminase of Streptomyces sp No. 83); experiment: as above; conditions: for Substrate specificity, Enzyme No. 83 (reactivity of substrate with hydroxylamine): Table 6, synthetic substrate 5 mM; for Substrate specificity, Enzyme No. 83 (reactivity of substrate with hydroxylamine) / Substrate specificity (%), Enzyme No. 83: CBZ-Gln-Gly = 100; for Substrate specificity (%), Enzyme No. 83: Table 9; for Reactivity of synthetic substrate with Enzyme No. 83 (in words): substrate 5 mM, text says BTGase (both enzymes)
Description: as §1, §2, §3

[3] = target: T1, MTGase (transglutaminase of guinea pig liver) (UniProt P08587); experiment: as above; conditions: Table 9; CBZ-Gln-Gly = 100
T1 construct: The guinea pig liver-derived transglutaminase was prepared by the method described in Connellan et al; from tissue; host or cells: guinea pig liver
T1 sequence (P08587 2-690 limits assumed): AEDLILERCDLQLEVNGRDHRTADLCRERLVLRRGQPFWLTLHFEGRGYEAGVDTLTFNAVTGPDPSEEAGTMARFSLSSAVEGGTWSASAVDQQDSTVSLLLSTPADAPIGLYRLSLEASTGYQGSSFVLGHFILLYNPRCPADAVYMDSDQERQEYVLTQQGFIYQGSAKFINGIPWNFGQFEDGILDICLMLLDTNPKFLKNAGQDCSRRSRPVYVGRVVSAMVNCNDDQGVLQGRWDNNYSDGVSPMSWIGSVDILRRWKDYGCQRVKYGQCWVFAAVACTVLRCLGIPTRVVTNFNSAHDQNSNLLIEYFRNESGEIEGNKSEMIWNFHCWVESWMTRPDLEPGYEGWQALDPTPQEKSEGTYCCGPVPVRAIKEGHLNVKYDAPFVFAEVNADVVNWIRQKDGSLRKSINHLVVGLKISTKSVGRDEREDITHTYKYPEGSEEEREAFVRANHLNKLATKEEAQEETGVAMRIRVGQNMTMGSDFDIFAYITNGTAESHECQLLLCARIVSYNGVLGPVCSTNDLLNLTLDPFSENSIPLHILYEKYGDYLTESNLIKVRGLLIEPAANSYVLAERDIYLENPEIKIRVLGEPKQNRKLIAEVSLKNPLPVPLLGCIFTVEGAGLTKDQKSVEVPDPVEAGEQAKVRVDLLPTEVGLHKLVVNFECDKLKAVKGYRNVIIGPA
Description: as §1, §2, §3
Next, properties of BTGases are compared to those of guinea pig liver-derived transglutaminase. The guinea pig liver-derived transglutaminase was prepared by the method described in Connellan et al., Journal of Biological Chemistry, Vol. 246, No. 4, pp. 1093-1098 (1971). As will be apparent from Tables 9 and 10, various differences in enzymological properties are noted between transglutaminase of guinea pig liver (hereafter, referred to as MTGase) which has been mainly investigated heretofore and BTGases derived from the genus Streptomyces: in particular, differences are noted in temperature stability, molecular weight, isoelectric point and substrate specificity. Further, a difference is noted in that the BTGases of the present invention act in the presence and absence of Ca^2+. Therefore, the respective enzymes of the present invention are different from MTGase in their properties.

[4] = tested on: Enzyme No. 466 (transglutaminase of Streptomyces lavendulae No. 466); experiment: Influence of metal ions on transglutaminase activity; conditions: for Activity of Enzyme No. 466 with metal ion (%): metal ion 1 mM in activity measurement system, None = 100, 10 min; for Effect of metal ion on activity of Enzyme No. 466 (in words): 1 mM, text says all BTGases
Description: as §1
(§4) To 0.05 ml of an enzyme solution is added 0.5 ml of Reagent A and they are mixed with each other. After reacting at 37° C. for 10 minutes, Reagent B is added thereto to discontinue the reaction and form an Fe complex. Thereafter, absorbance is measured at 525 nm. […] Separately, a calibration curve is prepared using L-glutamic acid γ-monohydroxamic acid instead of the enzyme solution, and the amount of hydroxamic acid produced is determined by the difference in absorbance described above. An enzyme activity which produces 1 μmol of hydroxamic acid per 1 minute is defined as 1 unit.

[5] = tested on: Enzyme No. 83 (transglutaminase of Streptomyces sp No. 83); experiment: as above; conditions: for Activity of Enzyme No. 83 with metal ion (%): metal ion 1 mM in activity measurement system, None = 100, 10 min; for Effect of metal ion on activity of Enzyme No. 83 (in words): 1 mM, text says all BTGases
Description: as §1, §4

[6] = tested on: Enzyme No. 466 (transglutaminase of Streptomyces lavendulae No. 466)
Description: as §1, §4
(§5) Each inhibitor was added in a concentration of 1 mM.

[7] = tested on: Enzyme No. 83 (transglutaminase of Streptomyces sp No. 83)
Description: as §1, §4, §5

[8] = 1 mM, 25° C. for 30 minutes, text says all BTGases
[9] = inhibitor 1 mM, 25° C. for 30 minutes, None = 100

## NC(=O)CC[C@H](NC(=O)CNC(=O)OCc1ccccc1)C(=O)NCC(=O)NCC(=O)O [CBZ--Gly--Gln--Gly--Gly] (Cbz-GQGG-OH)
[1]
  Substrate specificity, Enzyme No. 466 (reactivity of substrate with hydroxylamine): 18
  Substrate specificity (%), Enzyme No. 466: 18%
[2]
  Substrate specificity, Enzyme No. 83 (reactivity of substrate with hydroxylamine): 10
  Substrate specificity (%), Enzyme No. 83: 10%
[3]
  Substrate specificity (%), MTGase: 126%

## [Cl-].[Cl-].[Sr+2] [SrCl2]
[4]
  Activity of Enzyme No. 466 with metal ion (%): 97%
[5]
  Activity of Enzyme No. 83 with metal ion (%): 100%

## NC(=O)CC[C@H](NC(=O)OCc1ccccc1)C(=O)N[C@@H](CCC(N)=O)C(=O)NCC(=O)O [CBZ--Gln--Gln--Gly] (Cbz-Gln-Gln-Gly-OH)
[1]
  Substrate specificity, Enzyme No. 466 (reactivity of substrate with hydroxylamine): 35
  Substrate specificity (%), Enzyme No. 466: 35%
[2]
  Substrate specificity, Enzyme No. 83 (reactivity of substrate with hydroxylamine): 49
  Substrate specificity (%), Enzyme No. 83: 49%
[3]
  Substrate specificity (%), MTGase: 288%

## NC(=O)CC[C@H](NC(=O)OCc1ccccc1)C(=O)O [CBZ--Gln, benzyloxycarbonyl glutamine]
[1]
  Substrate specificity, Enzyme No. 466 (reactivity of substrate with hydroxylamine): 0
  Substrate specificity (%), Enzyme No. 466: 0%
  Reactivity of synthetic substrate with Enzyme No. 466 (in words): No BTGase reacts
[2]
  Substrate specificity, Enzyme No. 83 (reactivity of substrate with hydroxylamine): 0
  Substrate specificity (%), Enzyme No. 83: 0%
  Reactivity of synthetic substrate with Enzyme No. 83 (in words): No BTGase reacts
[3]
  Substrate specificity (%), MTGase: 0%

## [Cl-].[Cl-].[Zn+2] [ZnCl2]
[4]
  Effect of metal ion on activity of Enzyme No. 466 (in words): inhibited
  Activity of Enzyme No. 466 with metal ion (%): 10%
[5]
  Effect of metal ion on activity of Enzyme No. 83 (in words): inhibited
  Activity of Enzyme No. 83 with metal ion (%): 36%

## NC(=O)C[C@H](NC(=O)OCc1ccccc1)C(=O)NCC(=O)O [CBZ--Asn--Gly, benzyloxycarbonylasparaginyl glycine] (Cbz-Asn-Gly-OH)
[1]
  Substrate specificity, Enzyme No. 466 (reactivity of substrate with hydroxylamine): 0
  Substrate specificity (%), Enzyme No. 466: 0%
  Reactivity of synthetic substrate with Enzyme No. 466 (in words): No BTGase reacts
[2]
  Substrate specificity, Enzyme No. 83 (reactivity of substrate with hydroxylamine): 0
  Substrate specificity (%), Enzyme No. 83: 0%
  Reactivity of synthetic substrate with Enzyme No. 83 (in words): No BTGase reacts
[3]
  Substrate specificity (%), MTGase: 0%

## [Cl][Pb][Cl] [PbCl2]
[4]
  Effect of metal ion on activity of Enzyme No. 466 (in words): inhibited
  Activity of Enzyme No. 466 with metal ion (%): 32%
[5]
  Effect of metal ion on activity of Enzyme No. 83 (in words): inhibited
  Activity of Enzyme No. 83 with metal ion (%): 59%

## CCOC(=O)CNC(=O)[C@H](CCC(N)=O)NC(=O)OCc1ccccc1 [CBZ--Gln--Gly--OEt] (Cbz-Gln-Gly-OEt)
[1]
  Substrate specificity, Enzyme No. 466 (reactivity of substrate with hydroxylamine): 65
  Substrate specificity (%), Enzyme No. 466: 65%
[2]
  Substrate specificity, Enzyme No. 83 (reactivity of substrate with hydroxylamine): 61
  Substrate specificity (%), Enzyme No. 83: 61%
[3]
  Substrate specificity (%), MTGase: 122%

## CCN1C(=O)C=CC1=O [NEM, N-ethylmaleimide]
[6]; [8]
  Effect of inhibitor on activity of Enzyme No. 466 (in words): inhibited
[6]; [9]
  Activity of Enzyme No. 466 with inhibitor: 5
[7]; [8]
  Effect of inhibitor on activity of Enzyme No. 83 (in words): inhibited
[7]; [9]
  Activity of Enzyme No. 83 with inhibitor: 10

## [Cl-].[Na+] [NaCl]
[4]
  Activity of Enzyme No. 466 with metal ion (%): 98%
[5]
  Activity of Enzyme No. 83 with metal ion (%): 102%

## [Cl][Cu][Cl] [CuCl2]
[4]
  Effect of metal ion on activity of Enzyme No. 466 (in words): inhibited
  Activity of Enzyme No. 466 with metal ion (%): 90%
[5]
  Effect of metal ion on activity of Enzyme No. 83 (in words): inhibited
  Activity of Enzyme No. 83 with metal ion (%): 89%

## NCC(=O)N[C@@H](CCC(N)=O)C(=O)NCC(=O)O [Gly--Gln--Gly, glycylglutaminyl glycine] (H-Gly-Gln-Gly-OH)
[1]
  Substrate specificity, Enzyme No. 466 (reactivity of substrate with hydroxylamine): 0
  Substrate specificity (%), Enzyme No. 466: 0%
  Reactivity of synthetic substrate with Enzyme No. 466 (in words): No BTGase reacts
[2]
  Substrate specificity, Enzyme No. 83 (reactivity of substrate with hydroxylamine): 0
  Substrate specificity (%), Enzyme No. 83: 0%
  Reactivity of synthetic substrate with Enzyme No. 83 (in words): No BTGase reacts
[3]
  Substrate specificity (%), MTGase: 0%

## O=S(=O)(F)Cc1ccccc1 [PMSF, phenylmethylsulfonyl fluoride]
[6]; [9]
  Activity of Enzyme No. 466 with inhibitor: 103
[7]; [9]
  Activity of Enzyme No. 83 with inhibitor: 101

## [Ba+2].[Cl-].[Cl-] [BaCl2]
[4]
  Activity of Enzyme No. 466 with metal ion (%): 100%
[5]
  Activity of Enzyme No. 83 with metal ion (%): 100%

## O=C(O)CN(CCN(CC(=O)O)CC(=O)O)CC(=O)O [EDTA]
[6]
  Activity of Enzyme No. 466 with inhibitor: 108
[7]
  Activity of Enzyme No. 83 with inhibitor: 103

## O=C(O)c1cc[c]([Hg][Cl])cc1 [PCMB, p-chloromercury benzoic acid]
[6]; [8]
  Effect of inhibitor on activity of Enzyme No. 466 (in words): inhibited
[6]; [9]
  Activity of Enzyme No. 466 with inhibitor: 28
[7]; [8]
  Effect of inhibitor on activity of Enzyme No. 83 (in words): inhibited
[7]; [9]
  Activity of Enzyme No. 83 with inhibitor: 86

## [Cl-].[Cl-].[Co+2] [CoCl2]
[4]
  Activity of Enzyme No. 466 with metal ion (%): 98%
[5]
  Activity of Enzyme No. 83 with metal ion (%): 100%

## O=C(O)CI [Monoiodoacetic acid, monoiodoacetic acid]
[6]
  Activity of Enzyme No. 466 with inhibitor: 87
  Effect of inhibitor on activity of Enzyme No. 466 (in words): inhibited
[7]
  Activity of Enzyme No. 83 with inhibitor: 92
  Effect of inhibitor on activity of Enzyme No. 83 (in words): inhibited

## [Cl][Fe]([Cl])[Cl] [FeCl3]
[4]
  Activity of Enzyme No. 466 with metal ion (%): 97%
[5]
  Activity of Enzyme No. 83 with metal ion (%): 93%

## [Cl-].[K+] [KCl]
[5]
  Activity of Enzyme No. 83 with metal ion (%): 104%
